In data set [1] the test system is TNF-α. As to the kind of experiment: LPS+PHA-induced TNF-α secretion in whole blood ex vivo (ELISA), Experiment 1. The data set is classed as cell-based, human. The following applies: 24 h. The text has this:
(§1) For the first experiment, purified phyto-haemagglutinin HA16 (PHA) and E. Coli 0.26: B6 lipopolysaccharide (LPS) were from Murex, Dartford, UK and Sigma Chemical Co, St. Louis, USA, respectively. Human TNF-α (7300 pg/ml) was obtained from CLB/Sanquin, The Netherlands. RPMI 1640 medium containing L-glutamine was obtained from Gibco, UK. Adenosine-5′-triphosphate disodium salt (ATP) was purchased from Calbiochem, USA.
(§2) Blood was collected from 8 healthy subjects in heparin containing vacutainer tubes (Vacutainer, Becton-Dickinson, 170 I.U). […] Whole blood was aliquoted into 24-well sterile plates and diluted 1:4 with RPMI 1640 (supplemented with L-glutamine). To induce cytokine production, PHA and bacterial LPS were added at 1 μg/ml and 10 μg/ml final concentration respectively. […]
(§3) All cytokines were quantified by means of PeliKine Compact human ELISA kits (CLB/Sanquin, The Netherlands), based on appropriate and validated sets of monoclonal antibodies. […] The antibody on the microtiter plate then captured the cytokine present in a measured volume of sample or standard, and non-bound material was removed by washing. […] Color development was stopped by addition of sulfuric acid and the intensity of the color was measured by a microtiter plate reader (absorbance at 450 nm). The absorbance was transformed to cytokine concentrations (ng/L) using the standard curve. […]
In general terms: ELISA stands for enzyme-linked immunosorbent assay.

Data set [2] deals with IL-10. As to the kind of experiment: LPS+PHA-induced IL-10 secretion in whole blood ex vivo (ELISA), Experiment 1. It counts as cell-based, human. The following applies: 24 h.
Description: as §1, §2, §3

The test system of data set [3] is IL-6. As to the kind of experiment: LPS+PHA-induced IL-6 secretion in whole blood ex vivo (ELISA), Experiment 1. It counts as cell-based, human. Particulars: whole blood of healthy subjects, 24 h; ATP 1-300 μM; disodium salt.
Description: as §1, §2, §3

In data set [4] the test system is TNF-α. Kind of data set: LPS+PHA-induced TNF-α secretion in whole blood under oxidative stress (H2O2), Experiment 2. It counts as cell-based, human. The following applies: whole blood with 1 or 10 mM H2O2, 24 h; effect at 100 and 300 μM ATP; disodium salt. The procedure:
(§4) Blood was collected from 8 healthy subjects in heparin containing vacutainer tubes (Vacutainer, Becton-Dickinson, 170 I.U). […] Whole blood was aliquoted into 24-well sterile plates and diluted 1:4 with RPMI 1640 (supplemented with L-glutamine). To induce cytokine production, PHA and bacterial LPS were added at 1 μg/ml and 10 μg/ml final concentration respectively. After adding the concentrated solutions of ATP and the stimulants the plates were incubated in 5% CO2 at 37° C. for 24 h. After the incubation cell-free supernatant fluids were collected by centrifugation (6000 rpm, 10 min at 4° C.) and stored at −20° C. until tested for presence of cytokines.
as §3, with “antibodies. Assays were performed as follows.” for “antibodies.”

The test system of data set [5] is IL-10. Kind of data set: LPS+PHA-induced IL-10 secretion in whole blood under oxidative stress (H2O2), Experiment 2. Particulars: whole blood with 1 or 10 mM H2O2, 24 h; ATP 1-300 μM; disodium salt. The data set is classed as cell-based, human. The procedure:
as §4
as §3, with “antibodies. Assays were performed as follows.” for “antibodies.”

In data set [6] the test system is IL-6. Kind of data set: LPS+PHA-induced IL-6 secretion in whole blood under oxidative stress (H2O2), Experiment 2. The data set is classed as cell-based, human. The following applies: whole blood with 1 or 10 mM H2O2, 24 h; ATP 1-300 μM; disodium salt. The procedure: as §4
as §3, with “antibodies. Assays were performed as follows.” for “antibodies.”

In data set [7] the test system is TNF-α. As to the kind of experiment: Purinergic compounds on LPS+PHA-induced TNF-α secretion in whole blood, Experiment 3. It counts as cell-based, human. Particulars: for effect on LPS+PHA-induced TNF-α release (FIG. 8): compound at 300 μM, 24 h, order of inhibition adenosine<AMP<ADP<ATP; for inhibiting TNFα production in LPS-PHA stimulated whole blood, compared with ATP: pretreatment of whole blood, initial findings, ATP compared with ADP, AMP or adenosine; for anti-inflammatory effects relative to those of ATP: same whole blood model ex vivo. The procedure: (§5) Blood is collected as described for Experiment 1. Whole blood is then aliquoted into 24-well sterile plates and diluted 1:4 with RPMI 1640 (supplemented with L-glutamine). To induce cytokine production, PHA and bacterial LPS are added to whole blood at 1 μg/ml and 10 μg/ml respectively. After addition of ATP and stimulants, the plates are incubated in 5% CO2 at 37° C. for 24 h. Cell-free supernatant fluids are then collected by centrifugation (6000 rpm, 10 min at 4° C.) and stored at −20° C. until tested for presence of cytokines. All incubations are performed in duplicate. ATP, dissolved in RPMI 1640 culture medium, is added to the blood at a final concentration of 1-1000 μM. Blood is pre-incubated with ATP at 5% CO2 at 37° C. for 30 min before stimulation with LPS+PHA. The agonists are added in the same way as ATP, however their stock solutions are prepared in PBS and further diluted in medium.

Data set [8] deals with IL-10. Kind of data set: Purinergic compounds on LPS+PHA-induced IL-10 release in whole blood, Experiment 3. The following applies: pretreatment of whole blood; initial findings; ATP compared with ADP, AMP or adenosine. The data set is classed as cell-based, human. The procedure:
as §5

For data set [9], the system named is healthy non-smoking human subjects. Kind of data set: Lactulose/rhamnose (L/R) intestinal permeability test after indomethacin, Experiment 4. The following applies: indomethacin (75 mg + 50 mg) and ATP into duodenum vs indomethacin only; 5 h urine. It counts as in vivo. The procedure: Methods Intestinal permeability is tested in healthy non-smoking human subjects using the lactulose/rhamnose (L/R) intestinal permeability test. This barrier function test is based on the comparison of intestinal permeation of molecules of different sizes by measuring the ratio of urinary excretion of the disaccharide lactulose and the monosaccharide rhamnose. These two sugars follow different routes of intestinal permeation, i.e., lactulose permeates through the paracellular pathway, whereas rhamnose permeates transcellulary. The experiments are performed as follows: at t=−14 hrs, a Bengmark-type naso-intestinal tube (Flocare, Zoetermeer, The Netherlands) is installed into the stomach. Next, at t=−10 hrs, subjects ingest a capsule of indomethacin (75 mg) immediately followed by administration of either ATP or placebo directly into the subject's duodenum through the inserted tube. At t=−1 hr, after an overnight fast, subjects receive a second dose of indomethacin (50 mg) followed by either ATP or placebo. Then, at t=0, the permeability test is performed as follows: subjects ingest a hyperosmolar drink containing 5 g of lactulose and 0.5 g of L-rhamnose dissolve d in […] water. After ingestion of the hyperosmolar test drink, total urine produced over 5 hours is collected.

In data set [10] the test system is cancer patients. As to the kind of experiment: Safety of intravenous ATP home infusions in cancer patients. Particulars: over 60 intravenous home infusions in cancer patients. The data set is classed as in vivo, human. The source says:
In order to determine the tolerance for ATP as well as the maximally tolerated dose of ATP, the first ATP infusion is preferably administered under medical supervision, usually in an in- or outpatient setting. Subsequent infusions can either be started at the hospital day care centre, at private homes, nursing homes, etc. according to a standardized protocol.

For data set [11], the system named is mice bearing colon tumour. The following applies: daily intraperitoneal injections of 25 mmol/L for 10 consecutive days (refs 9, 10), cited from earlier work.
Data set [12] relates to patients with non-small cell lung cancer. Particulars: 8 stage IIIB/IV patients; 2 to 3 intravenous courses of 96 hours at 4-week intervals (ref 11); cited from earlier work.
Data set [13] has the same test system. Particulars: 15 newly diagnosed patients; after 4 ATP courses (ref 12); cited from earlier work.
The test system of data set [14] is advanced non-small-cell lung cancer patients. Particulars: cited from earlier work.
[15] abbreviates: whole blood of healthy subjects, effect at 100 and 300 μM ATP (tested 1-300 μM), disodium salt.

Entries after “also recorded” stand apart in the source; their conditions may differ. Where two headings read alike, the source gives them in different places.

As to `Nc1ncnc2c1ncn2[C@@H]1O[C@H](COP(=O)([O-])OP(=O)([O-])OP(=O)(O)O)[C@@H](O)[C@H]1O.[Na+].[Na+]` [ATP, Adenosine-5′-triphosphate disodium salt], the inhibition at 300 µM in [1] (Homo sapiens, 300 μM ATP, whole blood, 10 μg/ml LPS + 1 μg/ml PHA, vs stimulation without ATP, read-out: inhibition of the TNF-α production) was 65%. Also, the “effect on LPS+PHA-induced TNF-α release” value in data set [1] (setting [15]) was “dose-dependent inhibition; also recorded: significantly inhibited”. For the same compound, the “stimulation of the IL-10 production” value in data set [2] (300 μM ATP, whole blood, 10 μg/ml LPS + 1 μg/ml PHA, vs stimulation without ATP) stood at 62%. The “effect on LPS+PHA-induced IL-10 release” value in data set [2] (setting [15]) is listed as “increased the release of IL-10; also recorded: significantly increased”. The “effect on LPS+PHA-induced IL-6 release” value in data set [3] is “failed to significantly alter; also recorded: not influenced”. For the same compound, the “effect on LPS+PHA-induced TNF-α release under oxidative stress” value in [4] was “dose-dependent reduction; also recorded: significantly inhibited”. Moreover, in data set [5], the “effect on LPS+PHA-induced IL-10 release under oxidative stress” value is “significant, dose-dependent rise; also recorded: significantly increased”. In addition, in [6], the “effect on LPS+PHA-induced IL-6 release under oxidative stress” value is on record as “no effect; also recorded: not influenced”. In [7], the “effect on LPS+PHA-induced TNF-α release (FIG. 8)” value (“effect … (FIG. 8)” below) was “greatest inhibition” and the “inhibiting TNFα production in LPS-PHA stimulated whole blood, compared with ATP” value is given as “more effective”. For the same compound, in data set [8], the “stimulating IL-10 production in LPS-PHA stimulated whole blood, compared with ATP” value is “more effective”. Further, the “urinary concentration ratio of lactulose relative to rhamnose” value in [9] is reported as “lower”. For the same compound, in data set [10], the hospital admissions result is given as “No hospital admissions were necessary” and the “serious side effects on the WHO Common Toxicity Criteria scale” value is recorded as “no serious side effects grade 3-4”. In data set [11], the host weight loss entry was “significant inhibition of host weight loss”. Further, the body weight entry in data set [12] is on record as “stabilisation of body weight”. In addition, in [13], the average weight gain is on record as 1.3 kg. The “physical and functional quality of life, appetite, and muscle strength” value in data set [14] (ATP group, progressively deteriorated in control group (ref 13)) is “remained stable”. Moreover, the life-threatening side effects entry in data set [14] (ATP infusion during 30 hrs, previous study (13)) is “did not find any life-threatening side effects”. The “plasma levels of pro- or anti-inflammatory cytokines” value in [14] (further analyses, Dagnelie et al. 2003, unpublished data) was “no effect”. The “loss of weight and muscle mass” value in data set [14] (regular infusions vs control group with supportive care only (ref 13)) is “inhibited loss of weight and muscle mass”.

With `O=c1ccn([C@@H]2O[C@H](COP(=O)(O)OP(=O)(O)O)[C@@H](O)[C@H]2O)c(=O)[nH]1` [UDP], the “effect … (FIG. 8)” value in data set [7] is listed as “not inhibited”.

As for `Nc1ncnc2c1ncn2[C@@H]1O[C@H](COP(=O)(O)OP(=O)(O)O)[C@@H](O)[C@H]1O` [ADP], in data set [7], the “effect … (FIG. 8)” value is recorded as “inhibited” and the “anti-inflammatory effects relative to those of ATP” value was “less marked”.

For the compound `Nc1ccn([C@@H]2O[C@H](COP(=O)(O)OP(=O)(O)OP(=O)(O)O)[C@@H](O)[C@H]2O)c(=O)n1` [CTP], in data set [7], the “effect … (FIG. 8)” value is reported as “not inhibited”.

Consider `O=c1ccn([C@@H]2O[C@H](COP(=O)(O)OP(=O)(O)OP(=O)(O)O)[C@@H](O)[C@H]2O)c(=O)[nH]1` [UTP, uridine 5′-triphosphate], for which the “effect … (FIG. 8)” value in data set [7] is reported as “not inhibited”.

In the case of `CSc1nc(N)c2ncn([C@@H]3O[C@H](COP(=O)(O)OP(=O)(O)OP(=O)(O)O)[C@@H](O)[C@H]3O)c2n1` [2-MeS-ATP, reference compound], the “inhibiting TNFα production in LPS-PHA stimulated whole blood, compared with ATP” value in data set [7] was “at least partly mimicked”. The “stimulating IL-10 production in LPS-PHA stimulated whole blood, compared with ATP” value in [8] is recorded as “at least partly mimicked”.

Turning to `Nc1ncnc2c1ncn2[C@@H]1O[C@H](COP(=O)(O)O)[C@@H](O)[C@H]1O` [AMP], in data set [7], the “effect … (FIG. 8)” value is “inhibited” and the “anti-inflammatory effects relative to those of ATP” value is given as “less marked”. In data set [11], the host weight loss result is “significant inhibition of host weight loss”.

As for `Nc1ncnc2c1ncn2[C@@H]1O[C@H](CO)[C@@H](O)[C@H]1O` [adenosine], the “effect … (FIG. 8)” value in [7] is reported as “least inhibition”. For the same compound, the figures for the host weight loss entry in [11] and in [11] (listed as adenosine without phosphate) were “significant inhibition of host weight loss” and “ineffective”, respectively.

By inhibition is commonly meant the percentage by which the read-out fell short of the control.

The record behind these values is patent US20050261239A1, “Use of ATP for the manufacture of a medicament for treating certain inflammatory conditions, oxidative stress and fatigue” (Universiteit van Maastricht, priority 2004, published 2005).
